Experimental findings from patent US20240025883A1, “PYRIMIDIN-2-YL SULFONAMIDE DERIVATIVES” (Hoffmann-La Roche Inc., priority 2021, published 2024) are described below.

Data set [1] can be described thus: Microsome clearance assay, mouse. The note with it: microsomes.
Description: (§1) Incubations at a test compound of 1 mM in microsomes (0.5 mg/mL) plus cofactor NADPH are performed in 96 well plates at 37° C. on a TECAN (Tecan Group Ltd, Switzerland) automated liquid handling system. The final concentration of the test compound in the incubation is 1 microM. After a 10 minutes preincubation step of the test compound with the microsomes, the enzymatic reaction is started by the addition of cofactors. At 1, 3, 6, 9, 15, 25, 35 and 45 minutes, aliquots of the incubations are removed and quenched with 1:3 (v/v) acetonitrile containing internal standards. Samples are then cooled and centrifuged before analysis of the supernatant by LC-MS/MS.
Data set [2] is described as follows: Microsome clearance assay, rat. As to conditions: microsomes.
Description: as §1
Data set [3] concerns the target human GPR17 short isoform (Homo sapiens (Human), UniProt Q13304). As to the kind of experiment: GPR17 cAMP assay (hGPR17 cAMP, antagonist mode against EC80 of MDL29,951). Format: cell-based. The note with it: CHO-K1 cells stably expressing human GPR17 short isoform; EC80 of agonist MDL29,951; forskolin 15 μM. In outline:
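cAMP was read by competitive TR-FRET after a 30 min room-temperature stimulation: antagonists plus EC80 MDL29,951 and 0.5 mM IBMX, followed 5 min later by 15 μM forskolin. Cells were CHO-K1 with stable human GPR17 short isoform in HBSS/HEPES/BSA, pH 7.4; percent activity versus reference antagonist fitted sigmoidally.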
Background: Cyclic AMP is a second messenger, typically raised through Gs and lowered through Gi signalling.

Data set [4] can be described thus: Microsome clearance assay, human. As to conditions: microsomes.
Description: as §1

Chain of human GPR17 short isoform (Q13304 29-367): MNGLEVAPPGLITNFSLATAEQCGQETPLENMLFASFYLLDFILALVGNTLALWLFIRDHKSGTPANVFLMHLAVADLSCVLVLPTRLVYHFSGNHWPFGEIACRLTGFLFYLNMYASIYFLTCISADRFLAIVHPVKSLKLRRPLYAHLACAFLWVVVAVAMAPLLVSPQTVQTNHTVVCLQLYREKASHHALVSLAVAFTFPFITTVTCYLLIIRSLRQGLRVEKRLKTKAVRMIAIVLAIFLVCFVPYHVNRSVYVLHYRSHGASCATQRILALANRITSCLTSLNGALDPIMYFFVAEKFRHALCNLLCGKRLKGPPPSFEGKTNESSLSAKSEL

A word on the microsomal CLint: it is the rate of metabolic loss divided by the concentration. Higher therefore signals faster metabolism. By IC50 is commonly meant the concentration that inhibits the measured activity by half. Read a low IC50 as higher potency. Regarding `COc1nc(NS(=O)(=O)c2c[nH]c3cc(Cl)ccc23)ncc1CCC#N` [Example 179, 6-chloro-N-[5-(2-cyanoethyl)-4-methoxy-pyrimidin-2-yl]-1H-indole-3-sulfonamide], the figures for the microsomal CLint at 1 µM in data set [1], in data set [2] and in data set [4] were 10 µL/min/mg, 33 µL/min/mg and 10 µL/min/mg, respectively. This compound also returned an IC50 in data set [3] of 31 nM.
Regarding `COc1nc(NS(=O)(=O)c2c[nH]c3c(F)c(Cl)ccc23)c(F)cc1OCC(F)F` [RE-B, reference compound], the intrinsic clearance (microsomal CLint) at 1 µM in data set [1] worked out at 26 µL/min/mg; in data set [2], 65 µL/min/mg; in data set [4], 11 µL/min/mg.
Regarding `COc1nc(NS(=O)(=O)c2c[nH]c3c(F)c(Cl)ccc23)ncc1OCC(F)F` [Example 123, 6-chloro-N-[5-(2,2-difluoroethoxy)-4-methoxy-pyrimidin-2-yl]-7-fluoro-1H-indole-3-sulfonamide], the microsomal CLint at 1 µM in data set [1], in data set [2] and in data set [4] was 10 µL/min/mg throughout. Besides, the IC50 in data set [3] amounted to 91 nM.
For the compound `COc1nc(NS(=O)(=O)c2c[nH]c3cc(Cl)ccc23)c(F)cc1CCC#N` [RE-D, 6-chloro-N-[5-(2-cyanoethyl)-3-fluoro-6-methoxy-2-pyridyl]-1H-indole-3-sulfonamide, reference compound], the microsomal CLint at 1 µM is 121 µL/min/mg in data set [1], 869 µL/min/mg in data set [2] and 103 µL/min/mg in data set [4].
The like results for `COc1nc(NS(=O)(=O)c2c[nH]c3cc(Cl)ccc23)c(F)cc1CC(F)F` [RE-C, 6-chloro-N-[5-(2,2-difluoroethyl)-3-fluoro-6-methoxy-2-pyridyl]-1H-indole-3-sulfonamide, reference compound] were, in that order, 81 µL/min/mg, 286 µL/min/mg and 35 µL/min/mg.
For `COc1nc(NS(=O)(=O)c2c[nH]c3cc(Cl)ccc23)c(F)cc1OCCF` [RE-A, 6-chloro-N-[3-fluoro-5-(2-fluoroethoxy)-6-methoxy-2-pyridyl]-1H-indole-3-sulfonamide, reference compound], the microsomal CLint at 1 µM in data set [1] turned out to be 77 µL/min/mg; in data set [2], 357 µL/min/mg; in data set [4] it was 121 µL/min/mg.
For `COc1nc(NS(=O)(=O)c2c[nH]c3cc(Cl)ccc23)nc(OC(F)F)c1C` [Example 72, 6-chloro-N-[4-(difluoromethoxy)-6-methoxy-5-methyl-pyrimidin-2-yl]-1H-indole-3-sulfonamide], the 50% inhibitory concentration (IC50) in data set [3] amounted to 40 nM.
On the same count and under the same terms, to `COc1nc(NS(=O)(=O)c2csc3nc(Br)ccc23)ncc1OC(F)(F)CF` [Example 147, 6-bromo-N-[4-methoxy-5-(1,1,2-trifluoroethoxy)pyrimidin-2-yl]thieno[2,3-b]pyridine-3-sulfonamide] belongs 104 nM; to `COc1nc(NS(=O)(=O)c2c[nH]c3cc(Br)ccc23)ncc1OCCF` [Example 25, 6-bromo-N-[5-(2-fluoroethoxy)-4-methoxy-pyrimidin-2-yl]-1H-indole-3-sulfonamide], 23 nM.
`COc1nc(NS(=O)(=O)c2c[nH]c3nc(Br)ccc23)nc(OC)c1OCCF` [Example 109, 6-bromo-N-[5-(2-fluoroethoxy)-4,6-dimethoxy-pyrimidin-2-yl]-1H-pyrrolo[2,3-b]pyridine-3-sulfonamide] had a half-inhibitory concentration (IC50) in data set [3] of 36 nM.
Compound `COCCc1cnc(NS(=O)(=O)c2c[nH]c3cc(Cl)ccc23)nc1OC` [Example 49, 6-chloro-N-[4-methoxy-5-(2-methoxyethyl)pyrimidin-2-yl]-1H-indole-3-sulfonamide] displayed a half-maximal inhibitory concentration (IC50) in data set [3] of 809 nM.
In the case of `COc1nc(NS(=O)(=O)c2c[nH]c3cc(Cl)ccc23)ncc1CCCF` [Example 21, 6-chloro-N-[5-(3-fluoropropyl)-4-methoxy-pyrimidin-2-yl]-1H-indole-3-sulfonamide], in data set [3], the IC50 worked out at 12 nM.
Same read-out and setting: the result for `COc1ccc2c(S(=O)(=O)Nc3nc(OC)c(C)c(OC)n3)c[nH]c2c1` [Example 273, N-(4,6-dimethoxy-5-methyl-pyrimidin-2-yl)-6-methoxy-1h-indole-3-sulfonamide] reads 128 nM.
For `CCc1nc(NS(=O)(=O)c2c[nH]c3cc(Cl)ccc23)nc(OC)c1C` [Example 137, 6-chloro-N-(4-ethyl-6-methoxy-5-methyl-pyrimidin-2-yl)-1H-indole-3-sulfonamide], the IC50 in data set [3] is 442 nM.
On to `COc1nc(NS(=O)(=O)c2c[nH]c3cc(C)ccc23)ncc1CC(F)F` [Example 182, N-[5-(2,2-difluoroethyl)-4-methoxy-pyrimidin-2-yl]-6-methyl-1H-indole-3-sulfonamide], for which the half-maximal inhibitory concentration (IC50) in data set [3] came out at 101 nM.
Same read-out and setting: to `COc1nc(NS(=O)(=O)c2c[nH]c3c(C#N)c(Cl)ccc23)ncc1OCCF` [Example 280, 6-Chloro-7-Cyano-N-[5-(2-Fluoroethoxy)-4-Methoxy-Pyrimidin-2-Yl]-1H-Indole-3-Sulfonamide] belongs 62 nM; to `COc1nc(NS(=O)(=O)c2c[nH]c3cc(C(F)F)ccc23)ncc1CC(F)F` [Example 195, N-[5-(2,2-difluoroethyl)-4-methoxy-pyrimidin-2-yl]-6-(difluoromethyl)-1H-indole-3-sulfonamide], 54 nM; to `COc1nc(NS(=O)(=O)c2c[nH]c3c(F)c(Br)ccc23)ncc1CC(F)F` [Example 191, 6-bromo-N-[5-(2,2-difluoroethyl)-4-methoxy-pyrimidin-2-yl]-7-fluoro-1H-indole-3-sulfonamide], 33 nM.
Same read-out and setting: to `COCCOc1cnc(NS(=O)(=O)c2c[nH]c3cc(Cl)ccc23)nc1OC` [Example 7, 6-chloro-N-[4-methoxy-5-(2-methoxyethoxy)pyrimidin-2-yl]-1H-indole-3-sulfonamide] belongs 403 nM; to `COc1nc(NS(=O)(=O)c2c[nH]c3cc(Cl)ccc23)ncc1OC(F)F` [Example 8, 6-chloro-N-[5-(difluoromethoxy)-4-methoxy-pyrimidin-2-yl]-1H-indole-3-sulfonamide], 182 nM.
On the same count and under the same terms, the result for `COc1nc(NS(=O)(=O)c2c[nH]c3nc(Cl)ccc23)nc(OC)c1CC(F)CF` (centres unmarked) [Example 289, 6-Chloro-N-[5-(2,3-Difluoropropyl)-4,6-Dimethoxy-Pyrimidin-2-Yl]-1H-Pyrrolo[2,3-b]Pyridine-3-Sulfonamide] reads 69 nM.
In turn, `COc1nc(NS(=O)(=O)c2csc3nc(Br)ccc23)ncc1OCC(F)F` [Example 145, 6-bromo-N-[5-(2,2-difluoroethoxy)-4-methoxy-pyrimidin-2-yl]thieno[2,3-b]pyridine-3-sulfonamide] showed an IC50 in data set [3] of 152 nM.
In data set [3], `COc1nc(NS(=O)(=O)c2c[nH]c3nc(Br)ccc23)ncc1CC(F)F` [Example 200, 6-bromo-N-[5-(2,2-difluoroethyl)-4-methoxy-pyrimidin-2-yl]-1H-pyrrolo[2,3-b]pyridine-3-sulfonamide] returned a half-inhibitory concentration (IC50) of 66 nM.
In turn, `COc1nc(NS(=O)(=O)c2c[nH]c3c(CC#N)c(Cl)ccc23)ncc1CC(F)F` [Example 232, 6-chloro-7-(cyanomethyl)-N-[5-(2,2-difluoroethyl)-4-methoxy-pyrimidin-2-yl]-1H-indole-3-sulfonamide] gave a concentration for half-maximal inhibition (IC50) in data set [3] of 35 nM.
The same measure, in the same setting: the result for `COc1nc(NS(=O)(=O)c2c[nH]c3cc(Cl)ccc23)nc(OC)c1CCC#N` [Example 68, 6-chloro-N-[5-(2-cyanoethyl)-4,6-dimethoxy-pyrimidin-2-yl]-1H-indole-3-sulfonamide] reads 9 nM; that for `COc1nc(NS(=O)(=O)c2c[nH]c3c(CO)c(C)ccc23)ncc1CC(F)F` [Example 292, N-[5-(2,2-Difluoroethyl)-4-Methoxy-Pyrimidin-2-Yl]-6-Methyl-7-Methylol-1H-Indole-3-Sulfonamide], 433 nM; that for `COc1nc(NS(=O)(=O)c2c[nH]c3nc(Br)ccc23)nc(OC)c1CC(F)CF` (centres unmarked) [Example 288, 6-Bromo-N-[5-(2,3-Difluoropropyl)-4,6-Dimethoxy-Pyrimidin-2-Yl]-1H-Pyrrolo[2,3-b]Pyridine-3-Sulfonamide], 57 nM.
Still for that read-out and setting: the result for `COCCOc1nc(NS(=O)(=O)c2c[nH]c3cc(Cl)ccc23)nc(OC)c1Br` [Example 70, N-[5-bromo-4-methoxy-6-(2-methoxyethoxy)pyrimidin-2-yl]-6-chloro-1H-indole-3-sulfonamide] reads 2740 nM.
The same measure, in the same setting: the result for `COc1nc(NS(=O)(=O)c2c[nH]c3c(Cl)c(Cl)ccc23)ncc1CCC(F)F` [Example 211, 6,7-dichloro-N-[5-(3,3-difluoropropyl)-4-methoxy-pyrimidin-2-yl]-1H-indole-3-sulfonamide] reads 30 nM.
As for `COc1nc(NS(=O)(=O)c2c[nH]c3cc(Cl)ccc23)nc(C)c1CC(F)F` [Example 78, 6-chloro-N-[5-(2,2-difluoroethyl)-4-methoxy-6-methyl-pyrimidin-2-yl]-1H-indole-3-sulfonamide], the half-inhibitory concentration (IC50) in data set [3] was determined as 244 nM.
In turn, `COc1nc(NS(=O)(=O)c2c[nH]c3c(C(F)F)c(Cl)ccc23)ncc1CCC(F)F` [Example 209, 6-chloro-7-(difluoromethyl)-N-[5-(3,3-difluoropropyl)-4-methoxy-pyrimidin-2-yl]-1H-indole-3-sulfonamide] showed a half-maximal inhibitory concentration (IC50) in data set [3] of 68 nM.
Same read-out and setting: the result for `COc1nc(NS(=O)(=O)c2c[nH]c3c(F)c(Cl)ccc23)ncc1CC(F)F` [Example 124, 6-chloro-N-[5-(2,2-difluoroethyl)-4-methoxy-pyrimidin-2-yl]-7-fluoro-1H-indole-3-sulfonamide] reads 34 nM; that for `COc1nc(NS(=O)(=O)c2c[nH]c3cc(Cl)ccc23)nc(CC#N)c1Br` [Example 85, N-[5-bromo-4-(cyanomethyl)-6-methoxy-pyrimidin-2-yl]-6-chloro-1H-indole-3-sulfonamide], 623 nM.
